# Measurements published in US12698523B2, “Enhancement of nucleic acid polymerization by aromatic compounds” (priority 2019, dated 2026).
# Columns and labels:
# [1] = target: T1, C4760 DNA polymerase (a variant of DPO4, SEQ ID NO:2) (Saccharolobus solfataricus, UniProt Q97W02, A155G/A42V/D156R/D292Y/D294N/E291S/E324K/E325K/E327K/E63R/E79L/G187P/G299W/I153V/I189F/I248T/I295S/K152A/K317Q/K321Q/K56Y/K78D/L293W/M76W/N188Y/P184Q/Q82W/Q83G/R300S/S297Y/S86E/T290K/T301W/V289W/V296Q); assay: Primer extension assay with a 411mer amplicon template; type: biochemical, Sulfolobus solfataricus
# T1 construct: made in house
# Experimental: PEM activity of compound 15 was tested in primer extension assays using a 411mer amplicon template. Primer extension reactions included the following reagents: 50 Mm TrisCl, 200 Mm NH4Oac, 20% PEG8K, 5% NMS, 3 nmol PP-60.20, 2 Mm MnCl2, 2 μg Kod single-strand binding protein (SSB), 1 M urea, 250 pmol each XNTP, 1 pmol template, 1 pmol oligonucleotide primer, 1.2 μg purified recombinant C4760 DNA polymerase (a variant of DPO4, see SEQ ID NO:2), and 2 (lane 2) or 3 (lane 3) Mm PEM. 10 μL primer extension reactions were run for 20 minutes at 37° C. and reaction products were analyzed by gel electrophoresis. A representative gel showing primer extension products is presented in FIG. 12 (the position of a 277mer is indicated by the arrow). […] Remarkably, the polymerase is completely dependent upon the addition of PEM to the reaction in order to be capable of synthesizing these lengthy Xpandomer products. Even longer extension products may be obtained by optimizing various reaction parameters, e.g., extension time and/or concentrations of various additives.
# PEM activity of compound 19, was tested in primer extension assays using the 411mer amplicon template. […] 10 μL primer extension reactions were run for 30 minutes at 37° C. and reaction products were analyzed by gel electrophoresis. […]
# DNA polymerase [2] = assay: Screen of PEMs for enhancement of XNTP polymerization (primer extension reaction, gel electrophoresis); type: biochemical; conditions: FIG. 4 gel; no PEM additive: up to only around 14 XNTPs
# Description: The Sequencing by Expansion (SBX) methodology developed by the inventors provides significant performance enhancements in sequence read efficiency and accuracy of Xpandomers relative to native DNA. However, initial transcription of the sequence of the natural DNA template onto the measurable Xpandomer relies on the ability of DNA polymerase to utilize XNTPs as substrates (the generalized structure of an XNTP is discussed herein with reference to FIG. 1A and FIG. 2). […] In an effort to improve the efficiency and accuracy of XNTP polymerization into Xpandomers, several PEMs were screened for the ability to enhance DNA polymerase primer extension reactions using XNTPs as substrates.
# A representative primer extension reaction may include the following reagents: 2 pmol primer, 2.2 pmol 45mer oligonucleotide template, 50 pmol of each XNTP (XATP, XCTP, XGTP, and XTTP), 50 Mm Tris HCl, Ph 6.79, 200 Mm NaCl, 20% PEG, 5% NMS, 0.5 nmol polyphosphate 60.19, 0.3 Mm MnCl2, and 0.6 μg of purified recombinant DNA polymerase protein. Reactions may be run for 1 hr at 23° C. Reaction products (i.e., constrained Xpandomers) are treated to cleave the phosphoramidate bonds, thereby generating linearized Xpandomers. Reaction products may be analyzed using gel electrophoresis on 4-12% acrylamide gels to resolve and visualize Xpandomer products of different lengths. For the PEM screen described above, PEMs were typically tested in the micro to millimolar range.
# Again, this PEM activity is specific for compound 2, as other unrelated aromatic compounds had no effect (lanes 2-7).
# DNA polymerase [3] = assay: Sequencing by Expansion (SBX) of primer extension products, nanopore reads aligned to template; type: biochemical
# Description: To investigate the accuracy of PEM-dependent enhancement of XNTP polymerization, primer extension products were sequenced using the SBX protocol. Briefly, the constrained Xpandomer products of XNTP polymerization are cleaved to generate linearized Xpandomers. This is accomplished by first quenching the extension reaction with a solution containing 100 Mm EDTA, 2 Mm THPTA, and 2% Tween-20. Then the sample is subjected to amine modification with a solution of 1 M NaHCO3 and 1 M succinic anhydride in DMF. Cleavage of the phosphoramidate bonds is carried out with 37% HCl and linearized Xpandomers are purified with QIAquick columns (QIAGEN, Inc.).
# For sequencing, protein nanopores are prepared by inserting a-hemolysin into a DphPE/hexadecane bilayer member in buffer B1, containing 2 M NH4Cl and 100 Mm HEPES, Ph 7.4. The cis well is perfused with buffer B2, containing 0.4 M NH4Cl, 0.6 M GuCl, and 100 Mm HEPES, Ph 7.4. The Xpandomer sample is heated to 70° C. for 2 minutes, cooled completely, then a 2 μL sample is added to the cis well. A voltage pulse of 90 Mv/390 Mv/10 μs is then applied and data is acquired via Labview acquisition software.
# Sequence data is analyzed by histogram display of the population of sequence reads from a single SBX reaction. […]
# [4] = target: T2, C4552 (variant of DPO4 DNA polymerase, SEQ ID NO:1) (Saccharolobus solfataricus, UniProt Q97W02, A155G/A42V/D156R/D292Y/D294N/E291S/E324K/E325K/E327K/E79L/G187P/G299W/I153V/I189F/I248T/I295S/K152A/K317Q/K321Q/K56Y/K78D/L293W/M76W/N188Y/P184Q/Q82W/Q83G/R300S/S297Y/S86E/T290K/T301W/V289W/V296Q); assay: XNTP polymerization on longer templates (88, 127, 227, 277 nucleotides); type: biochemical, Sulfolobus solfataricus; conditions: 1 Mm compound; templates of 88, 127, 227, 277 nucleotides; 1-2 hr at 23° C.; FIG. 8
# T2 construct: made in house
# Experimental: Following the success of accurately replicating templates of up to 80 nucleotides in length into Xpandomers, XNTP polymerization reactions were conducted using four longer templates, consisting of 88, 127, 227, and 277 nucleotides in length. A variant of DPO4 DNA polymerase, referred to as C4552 (SEQ ID NO:1), was used in these polymerization reactions and reaction conditions were optimized for C4552 activity in the presence of PEM compound 1. Other suitable DPO4 polymerase variants include, but are not limited to, those of SEQ ID NO:s 2-5. In addition to 1 Mm compound 1, reaction additives included […] and 2.75 μg single-strand binding protein (Eco SSB). Extension reactions were carried out with 0.85 pmol template, 0.5 pmol oligonucleotide primer, and 1 nmol each XNTP in a final volume of 10 μL. Reactions were run in buffer composed of 50 Mm TrisCl, Ph 8.84, 200 Mm NH4Oac, and 20% PEG8K supplemented with 5% NMS, polyphosphate PP-60.20 in amounts of 3 or 4 nmol, and 2 Mm MnCl2. 1.2 μg purified recombinant DNA polymerase protein was used in each extension reaction and reactions were run for 1-2 hr at 23° C. […] Lanes 1-5 and 6-10 represent identical extension reactions with the exception of the amount of PP-60.20 additive, which was 3 nmol in lanes 1-5 and 4 nmol in lanes 6-10.
# C4552 DNA polymerase = target: T3, C4552 DNA polymerase (Saccharolobus solfataricus, UniProt Q97W02, A155G/A42V/D156R/D292Y/D294N/E291S/E324K/E325K/E327K/E79L/G187P/G299W/I153V/I189F/I248T/I295S/K152A/K317Q/K321Q/K56Y/K78D/L293W/M76W/N188Y/P184Q/Q82W/Q83G/R300S/S297Y/S86E/T290K/T301W/V289W/V296Q); assay: Primer extension assay with three 100mer templates derived from the HIV1, 2 and 3 genomes; type: biochemical, Sulfolobus solfataricus; conditions: 0.5 Mm PEM; HIV1, HIV2, HIV3 100mer templates; 30 minutes at 23° C.; FIG. 9
# T3 construct: made in house
# Experimental: PEM activity of compounds 9-11 was tested in primer extension assays using three 100mer templates, derived from the HIV1, 2, and 3 genomes. Primer extension reactions included the following reagents: 75 Mm TrisCl, Ph 8.44, 175 Mm NH4Oac, 20% PEG8K, 5% NMS, 0.8 nmol PP-60.20, 0.6 Mm MnCl2, 2.3 μg Tth single-strand binding protein (SSB), 0.5 M or 1 M urea, 200 pmol each XNTP, 1.1 pmol template, 1 pmol oligonucleotide primer, 1.2 μg purified recombinant C4552 DNA polymerase, and 0.5 Mm PEM. 10 μL primer extension reactions were run for 30 minutes at 23° C. and reaction products were analyzed by gel electrophoresis.
# T1 sequence (Q97W02 other isoform, or with tags, fused parts or gaps with the stated changes): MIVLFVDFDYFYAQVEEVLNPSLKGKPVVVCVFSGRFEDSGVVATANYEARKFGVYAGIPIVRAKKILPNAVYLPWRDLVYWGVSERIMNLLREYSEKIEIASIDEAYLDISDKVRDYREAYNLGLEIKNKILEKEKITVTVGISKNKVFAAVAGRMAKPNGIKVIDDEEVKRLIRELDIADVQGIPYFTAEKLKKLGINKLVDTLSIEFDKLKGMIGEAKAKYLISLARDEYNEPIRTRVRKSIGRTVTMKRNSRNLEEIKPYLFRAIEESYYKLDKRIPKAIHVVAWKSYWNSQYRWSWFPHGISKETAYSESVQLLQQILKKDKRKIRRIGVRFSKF
# T3 sequence (Q97W02 other isoform, or with tags, fused parts or gaps with the stated changes): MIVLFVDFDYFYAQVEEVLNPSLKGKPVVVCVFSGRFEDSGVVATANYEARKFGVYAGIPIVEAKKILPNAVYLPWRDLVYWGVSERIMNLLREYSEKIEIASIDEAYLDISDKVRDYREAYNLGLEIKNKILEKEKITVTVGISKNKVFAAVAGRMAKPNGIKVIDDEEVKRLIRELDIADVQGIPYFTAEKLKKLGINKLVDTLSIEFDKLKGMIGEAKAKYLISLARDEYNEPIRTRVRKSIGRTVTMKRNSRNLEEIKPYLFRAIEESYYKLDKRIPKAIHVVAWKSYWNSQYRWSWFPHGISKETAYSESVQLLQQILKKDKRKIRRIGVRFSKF
smiles,measurement,setting,value
"NC(=O)c1cc(-c2cn(-c3ccc(C(=O)O)c(O)c3)nn2)nc(-c2cn(-c3ccc(C(=O)O)c(O)c3)nn2)c1 [Compound 19, 4,4′-((4-carbamoylpyridine-2,6-diyl)bis(1H-1,2,3-triazole-4,1-diyl))bis(2-hydroxybenzoic acid)]",polymerization of XNTPs into lengthy Xpandomer copies (PEM activity),"[1]; 0.5, 1, or 1.5 Mm PEM, 30 minutes at 37° C., FIG. 14","enables polymerization of XNTPs into lengthy Xpandomer copies of the 411mer template, albeit in a manner less efficient than that of compound 14"
"CCOC(=O)c1cc(-c2cn(-c3ccc(O)c(C(=O)O)c3)nn2)nc(-c2cn(-c3ccc(O)c(C(=O)O)c3)nn2)c1 [Compound 15, 5,5′-((4-(ethoxycarbonyl)pyridine-2,6-diyl)bis(1H-1,2,3-triazole-4,1-diyl))bis(2-hydroxybenzoic acid)]",polymerization of XNTPs into lengthy Xpandomer copies (PEM activity),"[1]; 2 or 3 Mm PEM, 20 minutes at 37° C., FIG. 12",enables polymerization of XNTPs into lengthy Xpandomer copies of the 411mer template in a manner comparable to that of compound 14
"O=C(O)c1ccc(-n2cc(-c3cccc(-c4cn(-c5ccc(C(=O)O)c(O)c5)nn4)n3)nn2)cc1O [Compound 1, 4,4′-(pyridine-2,6-diylbis(1H-1,2,3-triazole-4,1-diyl))bis(2-hydroxybenzoic acid)]",DNA polymerase-mediated primer extension with XNTPs (length of extension products),DNA polymerase [2],considerably longer extension products
same,accuracy of SBX sequence reads,"DNA polymerase [3]; 45mer template, FIG. 6B, without additive reads not accurate past around base 18",increased the accuracy of the sequence reads across the entire length of the 45mer template
same,accuracy of SBX sequence reads,"DNA polymerase [3]; 60mer and 80mer templates, FIGS. 7A and 7B",enabled accurate sequence reads completely to the end of each of these longer templates
same,polymerization of XNTPs into Xpandomer copies of long templates,[4],complete Xpandomer copies of each longer template
same,polymerization of XNTPs into full length Xpandomer copies (PEM activity),C4552 DNA polymerase,enables polymerization of XNTPs into full length Xpandomer copies of the three different 100mer templates
